1 molecule from US20250276993A1, “PSEUDO-DISACCHARIDE COMPOUNDS” (UNIVERSITEIT LEIDEN, priority 2022, published 2025) can be followed below.

For one assay, the target named is T1, HPSE (Homo sapiens, UniProt Q9Y251).
T1 sequence (Q9Y251 36-109 limits assumed): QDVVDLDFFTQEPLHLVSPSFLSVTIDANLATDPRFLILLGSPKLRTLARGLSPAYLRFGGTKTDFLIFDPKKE
T1 sequence (Q9Y251 158-543 limits assumed): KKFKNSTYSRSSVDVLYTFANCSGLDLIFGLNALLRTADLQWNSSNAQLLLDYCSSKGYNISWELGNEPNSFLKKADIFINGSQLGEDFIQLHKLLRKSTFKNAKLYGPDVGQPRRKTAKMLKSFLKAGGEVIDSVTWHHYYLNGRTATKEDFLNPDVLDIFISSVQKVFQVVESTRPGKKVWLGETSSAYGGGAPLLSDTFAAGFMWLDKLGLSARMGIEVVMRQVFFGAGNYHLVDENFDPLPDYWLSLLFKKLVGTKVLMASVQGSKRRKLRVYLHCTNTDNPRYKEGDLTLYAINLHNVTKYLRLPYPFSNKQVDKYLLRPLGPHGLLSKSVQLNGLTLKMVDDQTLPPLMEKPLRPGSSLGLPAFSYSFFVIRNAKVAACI
Kind of assay: cABPP Assay 1, recombinant HPSE. It is filed as biochemical. To be noted: 1 h preincubation at 37° C., pH 5.5, 100 nM ABP 7.

Assay [1] concerns HPSE in U87 glioma-cell lysates. Kind of assay: HSPG digest assay, U87 cell lysates. To be noted: inhibitor applied before or after cell lysis, comparable H35S solubilization profiles. It is filed as cell-based, human. The method, then:
ECM coated 35 mm culture dishes containing ^35S labelled HS were prepared as previously described (Vlodavsky et al., Curr. Protoc. Cell. Biol., Chapter 10, Unit 10, 14). Briefly, bovine corneal endothelial cells were plated at an initial density of 2×10^5 cells/ml, with 4% dextran T-40 (Sigma) included in the growth medium. Na2^35SO4 (25 μCi/ml) was added to the incubation medium on days 2 and 5 after seeding. On day 12, subendothelial ECM is exposed by dissolving the cells with PBS containing 0.5% Triton X-100 and 20 mM NH4OH, followed by four washes with PBS. For HS-degradation assays, ECM coated dishes were incubated with 200 ng recombinant HPSE in 1 mL reaction mixture (10 mM buffer Phosphate-Citrate pH 6.0, 50 mM NaCl, 1 mM DTT, 1 mM CaCl2) containing HPSE inhibitors or DMSO control. Plates were incubated at 37° C. for 5 h, then assay medium collected and applied to a 0.9×30 cm Sepharose 6B size exclusion column. The Sepharose 6B column was eluted with PBS, and ^35S radioactivity of 0.2 mL fractions quantitated using a liquid scintillation analyzer (Packard BioScience). Digest assays with U87 cell lysates were carried out in a similar fashion, except plates were incubated for 18 h with cell extracts prepared from 1×10^6 U87 glioma cells lysed by 3× freeze/thaw cycles.

A further assay relates to U87 glioblastoma cells. Kind of assay: Matrigel invasion assay. It is filed as cell-based, human. To be noted: 20 μM inhibitor, 4 h. The protocol:
The Matrigel invasion assay was used to assess the effects of the compounds of the invention on cancer cell aggression. This is an in cellulo model of cell invasion through a HSPG rich basement membrane. The ability of cells to migrate through transwell inserts coated with Matrigel (an ECM secretion from Engelbreth-Holm-Swarm mouse sarcoma cells) correlates well with their in vivo invasive potential (Hall et al., Methods Mol Biol, 1070, 1-11 (2014)).
1×10^5 U87 cells in 200 μL DMEM media (without serum) were seeded onto the top chamber of a Matrigel-coated Boyden transwell filter, alongside 20 μM HPSE inhibitor (or PBS control). Cells in the upper chamber were separated by Matrigel from a lower chamber containing 600 μL DMEM, supplemented with 10% FBS. Plates were incubated at 37° C. for 4 h, before fixing cells in 4% (v/v) paraformaldehyde, and staining with 0.5% (w/v) crystal violet. Matrigel and non-migrating cells in the upper side of the Boyden filter were removed by swabbing, then invading cells on the bottom side of the transwell filter imaged for analysis. 10 randomly selected microscopic fields were recorded, and cell invasion calculated using ImageJ, by quantitating the percentage of the field stained by crystal violet. Graphs were plotted using RStudio.
The Matrigel invasion assay was used to assess the effects of the compounds of the invention on cancer cell aggression. […]

Another assay has as its system B16-BL6 melanoma cells. Kind of assay: B16 melanoma experimental lung metastasis model. It is filed as in vivo, C57BL/J6 mice. Conditions: after 14 days; 2: 300 nmol/mouse i.p.; SST0001: 150 μg/mouse i.p.; vs PBS-only control. The protocol:
B16 melanoma—Twenty minutes before tumor cell inoculation, C57BL/J6 mice (n=5) were injected intraperitoneally with vehicle alone (PBS), compound 2 (300 nmol/mouse), or SST0001 (150 μg/mouse). Mice were subsequently intravenously inoculated with 1.5×10^5 B16-BL6 melanoma cells/mouse in a volume of 100 μL, alongside 20 μM 2 or 10 μg SST0001. Mice were sacrificed after 14 days and the lungs were dissected, photographed and evaluated for the number of metastatic foci/lung.
The compounds of the invention were tested against a B16 murine melanoma experimental metastasis model, which measures the formation of metastatic lung tumors by B16 cancer cells after intravenous (i.v.) injection. Additionally, the compounds of the invention were tested against a second cancer model—4T1 murine mammary carcinoma, which also metastasizes to the lungs upon injection.

In assay [2] the test system is 4T1 mouse mammary carcinoma cells. Description: 4T1 breast cancer lung metastasis model. The assay is classed as in vivo, Balb/c mice. Conditions: 2: 300 nmol/mouse i.p.; SST0001: 150 μg/mouse i.p.; bioluminescence, 14 day timepoint. The protocol:
4T1 breast cancer—Twenty minutes before tumor cell inoculation, Balb/c mice (n=5) were injected intraperitoneally with vehicle alone (PBS), compound 2 (300 nmol/mouse), or SST0001 (150 μg/mouse). Mice were subsequently intravenously inoculated with 1.5×10^5 luciferase tagged 4T1 mouse mammary carcinoma cells/mouse in a volume of 100 μL, alongside 20 μM 2 or 10 μg SST0001.
Bioluminescence imaging of lung metastases produced by luciferase-expressing 4T1 cells was carried out using a highly sensitive, cooled charge-coupled device camera assembled in a specimen box (IVIS; Xenogen Corp, Hopkinton, MA). For this, the tumor-bearing mice were intraperitoneally administered with a luciferase substrate D-luciferin at a dose of 150 mg/kg body weight. The mice were anesthetized and kept in a camera box followed by continuous exposure to isoflurane (EZAnesthesia, Palmer, PA, USA). The tumor burden was quantified using Living Image software (Xenogen) (U. Barash et al., Journal of the National Cancer Institute 110, 1102-1114, 2018; M. Weissmann et al., Proc Natl Acad Sci, 113, 704-709, 2016)
The compounds of the invention were tested against a B16 murine melanoma experimental metastasis model, which measures the formation of metastatic lung tumors by B16 cancer cells after intravenous (i.v.) injection. […]

Take `CC(=O)NC1C(O)[C@H](O)C(CO)O[C@@H]1O[C@H]1C(O)C(O)[C@@H]2OC2C1C(=O)O` (stereo partly drawn) [Compound 2, 4-O-(2-N-acetyl-2-deoxy-D-glucopyranosyl)-glucurono-cyclophellitol]: the “HPSE inhibition (abrogation of labelling by ABP 7)” value at HPSE is on record as “inhibited HPSE at nanomolar concentrations”. Also, the “cell penetration / inhibition of intracellular HPSE pool” value in assay [1] was “can penetrate cells to inhibit the intracellular HPSE pool”. Besides, the Matrigel invasion result with U87 glioblastoma cells is reported as “significantly reduced Matrigel invasion”. For the same molecule, the “lung metastases (B16)” value with B16-BL6 melanoma cells is “marked reduction in lung growths”. Moreover, in assay [2], the “incidence of lung metastases (4T1)” value is on record as “marked reduction in the incidence of lung metastases”.
